Data reported in publication PMC6041819, “Synthesis of novel benzenesulfamide derivatives with inhibitory activity against human cytosolic carbonic anhydrase I and II and Vibrio cholerae α- and β-class enzymes” (Journal of Enzyme Inhibition and Medicinal Chemistry, 2018).

Experiments:
Test in all cases: stopped-flow CO2 hydrase assay
Format in all cases: biochemical
VchCAβ = biological target: T1, VchCAβ (Vibrio cholerae, UniProt Q9KUD6)
T1 construct: gene VC_0586

VchCAα = biological target: T2, VchCAα (Vibrio cholerae, UniProt Q9KMP6)
T2 construct: gene VC_A0274

hCA I = biological target: T3, hCA I (Homo sapiens, UniProt P00915)
T3 construct: gene CA1; recombinant, obtained in-house; cytosolic isoform
From the text: stopped-flow CO2 hydrase assay on hCA I

hCA II = biological target: T4, hCA II (Homo sapiens, UniProt P00918)
T4 construct: gene CA2; recombinant, obtained in-house; cytosolic isoform
From the text: stopped-flow CO2 hydrase assay on hCA II

T2 sequence (Q9KMP6 21-239 limits assumed): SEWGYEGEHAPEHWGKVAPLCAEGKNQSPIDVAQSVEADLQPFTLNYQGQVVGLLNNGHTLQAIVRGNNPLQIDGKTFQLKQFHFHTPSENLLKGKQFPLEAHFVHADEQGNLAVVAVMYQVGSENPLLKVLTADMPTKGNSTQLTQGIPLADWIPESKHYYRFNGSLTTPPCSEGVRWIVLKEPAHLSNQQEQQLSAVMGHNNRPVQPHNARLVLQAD
T1 sequence (Q9KUD6 1-222): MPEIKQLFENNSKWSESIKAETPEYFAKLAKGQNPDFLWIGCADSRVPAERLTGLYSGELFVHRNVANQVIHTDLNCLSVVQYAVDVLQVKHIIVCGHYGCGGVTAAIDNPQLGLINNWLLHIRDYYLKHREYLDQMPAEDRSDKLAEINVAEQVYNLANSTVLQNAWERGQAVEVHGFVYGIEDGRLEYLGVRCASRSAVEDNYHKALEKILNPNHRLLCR
T3 sequence (P00915 2-261): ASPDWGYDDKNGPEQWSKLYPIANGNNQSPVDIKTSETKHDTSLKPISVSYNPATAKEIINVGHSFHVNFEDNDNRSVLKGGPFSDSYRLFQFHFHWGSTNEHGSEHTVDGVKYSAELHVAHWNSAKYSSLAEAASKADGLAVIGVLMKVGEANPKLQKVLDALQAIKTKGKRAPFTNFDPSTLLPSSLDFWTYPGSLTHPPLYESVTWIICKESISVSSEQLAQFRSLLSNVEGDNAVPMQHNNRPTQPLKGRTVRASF

Row | Compound | Ki (VchCAβ) [µM] | Ki (VchCAα) [µM] | Ki (hCA I) [µM] | Ki (hCA II) [µM]
1 | NS(=O)(=O)Nc1cccc(S(=O)(=O)N2CCN(C(c3ccccc3)c3ccccc3)CC2)c1 [6a, 1-Benzhydryl-4-((3-sulfamoylaminophenyl)sulfonyl)piperazine] | 4.68 | 0.334 | 0.0662 | 0.417
2 | NS(=O)(=O)Nc1ccc(S(=O)(=O)N2CCN(C(c3ccccc3)c3ccccc3)CC2)cc1 [6b, 1-Benzhydryl-4-((4-sulfamoylaminophenyl)sulfonyl)piperazine] | 1.88 | 0.236 | 0.555 | 0.359
3 | NS(=O)(=O)Nc1ccccc1S(=O)(=O)NCC(=O)N1CCN(C(c2ccccc2)c2ccccc2)CC1 [6c, N-(2-(4-Benzhydrylpiperazin-1-yl)-2-oxoethyl)-2-(sulfamoylamino)benzenesulfonamide] | > 10 | 0.931 | 0.84 | 0.85
4 | NS(=O)(=O)Nc1cccc(S(=O)(=O)NCC(=O)N2CCN(C(c3ccccc3)c3ccccc3)CC2)c1 [6d, N-(2-(4-Benzhydrylpiperazin-1-yl)-2-oxoethyl)-3-(sulfamoylamino)benzenesulfonamide] | 3.78 | 0.0957 | 0.0581 | 0.396
5 | NS(=O)(=O)Nc1ccccc1S(=O)(=O)N1CCC(C(=O)N2CCN(C(c3ccccc3)c3ccccc3)CC2)CC1 [6e, (4-Benzhydrylpiperazin-1-yl)(1-((2-sulfamoylaminophenyl)sulfonyl)piperidin-4-yl)methanone] | > 10 | 0.879 | 0.578 | 1.36
6 | NS(=O)(=O)Nc1cccc(S(=O)(=O)N2CCC(C(=O)N3CCN(C(c4ccccc4)c4ccccc4)CC3)CC2)c1 [6f, (4-Benzhydrylpiperazin-1-yl)(1-((3-sulfamoylaminophenyl)sulfonyl)piperidin-4-yl)methanone] | 3.79 | 0.654 | 0.0431 | 0.576
7 | NS(=O)(=O)Nc1ccc(S(=O)(=O)N2CCC(C(=O)N3CCN(C(c4ccccc4)c4ccccc4)CC3)CC2)cc1 [6g, (4-Benzhydrylpiperazin-1-yl)(1-((4-sulfamoylaminophenyl)sulfonyl)piperidin-4-yl)methanone] | 2.54 | 0.14 | 0.601 | 0.227
8 | NS(=O)(=O)Nc1ccccc1S(=O)(=O)N1CCN(C(c2ccc(F)cc2)c2ccc(F)cc2)CC1 [6h, 1-(Bis(4-Fluorophenyl)methyl)-4-((2-sulfamoylaminophenyl)sulfonyl)piperazine] | > 10 | 2.8 | 0.843 | 1.17
9 | NS(=O)(=O)Nc1cccc(S(=O)(=O)N2CCN(C(c3ccc(F)cc3)c3ccc(F)cc3)CC2)c1 [6i, 1-(Bis(4-Fluorophenyl)methyl)-4-((3-sulfamoylaminophenyl)sulfonyl)piperazine] | 1.74 | 0.588 | 0.075 | 0.389
10 | NS(=O)(=O)Nc1ccc(S(=O)(=O)N2CCN(C(c3ccc(F)cc3)c3ccc(F)cc3)CC2)cc1 [6j, 1-(Bis(4-Fluorophenyl)methyl)-4-((4-sulfamoylaminophenyl)sulfonyl)piperazine] | 4.35 | 0.274 | 0.0646 | 0.353
11 | NS(=O)(=O)Nc1ccccc1S(=O)(=O)NCC(=O)N1CCN(C(c2ccc(F)cc2)c2ccc(F)cc2)CC1 [6k, N-(2-(4-(bis(4-Fluorophenyl)methyl)piperazin-1-yl)-2-oxoethyl)-2-(sulfamoylamino)benzenesulfonamide] | > 10 | 1.75 | 0.338 | 1.43
12 | NS(=O)(=O)Nc1cccc(S(=O)(=O)NCC(=O)N2CCN(C(c3ccc(F)cc3)c3ccc(F)cc3)CC2)c1 [6l, N-(2-(4-(bis(4-Fluorophenyl)methyl)piperazin-1-yl)-2-oxoethyl)-3-(sulfamoylamino)benzenesulfonamide] | > 10 | 0.0914 | 0.0711 | 0.218
13 | NS(=O)(=O)Nc1ccc(S(=O)(=O)NCC(=O)N2CCN(C(c3ccc(F)cc3)c3ccc(F)cc3)CC2)cc1 [6m, N-(2-(4-(bis(4-Fluorophenyl)methyl)piperazin-1-yl)-2-oxoethyl)-4-(sulfamoylamino)benzene sulfonamide] | 4.67 | 0.106 | 0.0478 | 0.208
14 | NS(=O)(=O)Nc1ccccc1S(=O)(=O)N1CCC(C(=O)N2CCN(C(c3ccc(F)cc3)c3ccc(F)cc3)CC2)CC1 [6n, (4-(bis(4-Fluorophenyl)methyl)piperazin-1-yl)(1-((2-sulfamo-ylaminophenyl)sulfonyl)piperidin-4-yl)methanone] | > 10 | 3.75 | 0.683 | 0.59
15 | NS(=O)(=O)Nc1cccc(S(=O)(=O)N2CCC(C(=O)N3CCN(C(c4ccc(F)cc4)c4ccc(F)cc4)CC3)CC2)c1 [6o, (4-(bis(4-Fluorophenyl)methyl)piperazin-1-yl)(1-((3-sulfamoylaminophenyl)sulfonyl)piperidin-4-yl)methanone] | 1.58 | 0.497 | 0.072 | 0.663
16 | NS(=O)(=O)Nc1ccc(S(=O)(=O)N2CCC(C(=O)N3CCN(C(c4ccc(F)cc4)c4ccc(F)cc4)CC3)CC2)cc1 [6p, (4-(bis(4-Fluorophenyl)methyl)piperazin-1-yl)(1-((4-sulfamo-ylaminophenyl)sulfonyl)piperidin-4-yl)methanone] | 4.53 | 0.398 | 0.0491 | 0.182
